Data published in ChEMBL document CHEMBL5055626 (J Med Chem, 2021).
Calls of active or inactive are those of the source. No cut-off for these calls is given here. Where a SMILES comes first, the peptide text is derived from it. Bridges are numbered along the chain shown (N, C = ends).

Assays:
[1] = target: Neuronal acetylcholine receptor; alpha3/beta4 (Rattus norvegicus) (UniProt P04757+P12392); test: Antagonist activity at rat alpha3beta4 nAChR expressed in xenopus oocytes assessed as inhibition of Ach- induced response at 10 uM at -70 mV holding potential preincubated for 5 mins followed by Ach stimulation by voltage-clamp based electrophysiological method; assay type: cell-based; details: Oocyte
[2] = Antagonist activity at human nAChR alpha7 H141Q/S184N/R186K triple mutant expressed in xenopus oocytes assessed as inhibition of Ach- induced response at -70 mV holding potential preincubated for 5 mins followed by Ach stimulation by voltage-clamp based electrophysiological method; assay type: cell-based; details: Oocyte
[3] = target: Neuronal acetylcholine receptor; alpha4/beta2 (Rattus norvegicus, UniProt P09483+P12390); test: Antagonist activity at rat alpha4beta2 nAChR expressed in xenopus oocytes assessed as inhibition of Ach- induced response at -70 mV holding potential preincubated for 5 mins followed by Ach stimulation by voltage-clamp based electrophysiological method; assay type: cell-based, Oocyte
[4] = Antagonist activity at rat nAChR alpha7 S167G mutant expressed in xenopus oocytes assessed as inhibition of Ach- induced response at -70 mV holding potential preincubated for 5 mins followed by Ach stimulation by voltage-clamp based electrophysiological method; assay type: cell-based; details: Oocyte
[5] = target: Neuronal acetylcholine receptor; alpha2/beta2 (Rattus norvegicus) (UniProt P12389+P12390); test: Antagonist activity at rat alpha2beta2 nAChR expressed in xenopus oocytes assessed as inhibition of Ach- induced response at 10 uM at -70 mV holding potential preincubated for 5 mins followed by Ach stimulation by voltage-clamp based electrophysiological method; assay type: cell-based; details: Oocyte
[6] = target: Neuronal acetylcholine receptor; alpha3/beta4 (Rattus norvegicus, UniProt P04757+P12392); test: Antagonist activity at rat alpha3beta4 nAChR expressed in xenopus oocytes assessed as inhibition of Ach- induced response at -70 mV holding potential preincubated for 5 mins followed by Ach stimulation by voltage-clamp based electrophysiological method; assay type: cell-based, Oocyte
[7] = target: Nicotinic acetylcholine receptor alpha6/alpha3/beta4 (Homo sapiens, UniProt P30926+P32297+Q15825); test: Antagonist activity at rat alpha6/alpha3beta4 nAChR expressed in xenopus oocytes assessed as inhibition of Ach- induced response at -70 mV holding potential preincubated for 5 mins followed by Ach stimulation by voltage-clamp based electrophysiological method; assay type: cell-based, Oocyte
[8] = target: Neuronal acetylcholine receptor; alpha4/beta4 (Rattus norvegicus, UniProt P09483+P12392); test: Antagonist activity at rat alpha4beta4 nAChR expressed in xenopus oocytes assessed as inhibition of Ach- induced response at -70 mV holding potential preincubated for 5 mins followed by Ach stimulation by voltage-clamp based electrophysiological method; assay type: cell-based, Oocyte
[9] = Antagonist activity at rat nAChR alpha7 A112S mutant expressed in xenopus oocytes assessed as inhibition of Ach- induced response at -70 mV holding potential preincubated for 5 mins followed by Ach stimulation by voltage-clamp based electrophysiological method; assay type: cell-based; details: Oocyte
[10] = target: Nicotinic acetylcholine receptor alpha9/alpha10 (Rattus norvegicus, UniProt P43144+Q9JLB5); test: Antagonist activity at rat alpha9alpha10 nAChR expressed in xenopus oocytes assessed as inhibition of Ach- induced response at -70 mV holding potential preincubated for 5 mins followed by Ach stimulation by voltage-clamp based electrophysiological method; assay type: cell-based, Oocyte
[11] = Antagonist activity at human nAChR alpha7 S184N/R186K double mutant expressed in xenopus oocytes assessed as inhibition of Ach- induced response at -70 mV holding potential preincubated for 5 mins followed by Ach stimulation by voltage-clamp based electrophysiological method; assay type: cell-based; details: Oocyte
[12] = target: Neuronal acetylcholine receptor; alpha2/beta2 (Rattus norvegicus, UniProt P12389+P12390); test: Antagonist activity at rat alpha2beta2 nAChR expressed in xenopus oocytes assessed as inhibition of Ach- induced response at -70 mV holding potential preincubated for 5 mins followed by Ach stimulation by voltage-clamp based electrophysiological method; assay type: cell-based, Oocyte
[13] = target: Neuronal acetylcholine receptor; alpha2/beta4 (Rattus norvegicus, UniProt P12389+P12392); test: Antagonist activity at rat alpha2beta4 nAChR expressed in xenopus oocytes assessed as inhibition of Ach- induced response at -70 mV holding potential preincubated for 5 mins followed by Ach stimulation by voltage-clamp based electrophysiological method; assay type: cell-based, Oocyte
[14] = Antagonist activity at human nAChR alpha7 H141Q mutant expressed in xenopus oocytes assessed as inhibition of Ach- induced response at -70 mV holding potential preincubated for 5 mins followed by Ach stimulation by voltage-clamp based electrophysiological method; assay type: cell-based; details: Oocyte
[15] = Antagonist activity at rat alpha6/ alpha3beta2beta3 nAChR expressed in xenopus oocytes assessed as inhibition of Ach- induced response at -70 mV holding potential preincubated for 5 mins followed by Ach stimulation by voltage-clamp based electrophysiological method; assay type: cell-based; details: Oocyte
[16] = target: Nicotinic acetylcholine receptor alpha9/alpha10 (Rattus norvegicus) (UniProt P43144+Q9JLB5); test: Antagonist activity at rat alpha9alpha10 nAChR expressed in xenopus oocytes assessed as inhibition of Ach- induced response at 10 uM at -70 mV holding potential preincubated for 5 mins followed by Ach stimulation by voltage-clamp based electrophysiological method; assay type: cell-based; details: Oocyte
[17] = Antagonist activity at human nAChR alpha7 R186K mutant expressed in xenopus oocytes assessed as inhibition of Ach- induced response at -70 mV holding potential preincubated for 5 mins followed by Ach stimulation by voltage-clamp based electrophysiological method; assay type: cell-based; details: Oocyte
[18] = Antagonist activity at rat nAChR alpha7 Y200F mutant expressed in xenopus oocytes assessed as inhibition of Ach- induced response at -70 mV holding potential preincubated for 5 mins followed by Ach stimulation by voltage-clamp based electrophysiological method; assay type: cell-based; details: Oocyte
[19] = target: Neuronal acetylcholine receptor subunit alpha-7 (Homo sapiens, UniProt P36544); assay type: cell-based, Oocyte
[20] = Antagonist activity at rat nAChR alpha7 M69V mutant expressed in xenopus oocytes assessed as inhibition of Ach- induced response at -70 mV holding potential preincubated for 5 mins followed by Ach stimulation by voltage-clamp based electrophysiological method; assay type: cell-based; details: Oocyte
[21] = target: Neuronal acetylcholine receptor; alpha2/beta4 (Rattus norvegicus) (UniProt P12389+P12392); test: Antagonist activity at rat alpha2beta4 nAChR expressed in xenopus oocytes assessed as inhibition of Ach- induced response at 10 uM at -70 mV holding potential preincubated for 5 mins followed by Ach stimulation by voltage-clamp based electrophysiological method; assay type: cell-based; details: Oocyte
[22] = Antagonist activity at rat nAChR alpha7 K186R mutant expressed in xenopus oocytes assessed as inhibition of Ach- induced response at -70 mV holding potential preincubated for 5 mins followed by Ach stimulation by voltage-clamp based electrophysiological method; assay type: cell-based; details: Oocyte
[23] = Antagonist activity at rat nAChR alpha7 M177V mutant expressed in xenopus oocytes assessed as inhibition of Ach- induced response at -70 mV holding potential preincubated for 5 mins followed by Ach stimulation by voltage-clamp based electrophysiological method; assay type: cell-based; details: Oocyte
[24] = Antagonist activity at rat nAChR alpha7 N184S mutant expressed in xenopus oocytes assessed as inhibition of Ach- induced response at -70 mV holding potential preincubated for 5 mins followed by Ach stimulation by voltage-clamp based electrophysiological method; assay type: cell-based; details: Oocyte

Nicotinic acetylcholine receptor alpha9/alpha10, sequence (P43144 whole entry): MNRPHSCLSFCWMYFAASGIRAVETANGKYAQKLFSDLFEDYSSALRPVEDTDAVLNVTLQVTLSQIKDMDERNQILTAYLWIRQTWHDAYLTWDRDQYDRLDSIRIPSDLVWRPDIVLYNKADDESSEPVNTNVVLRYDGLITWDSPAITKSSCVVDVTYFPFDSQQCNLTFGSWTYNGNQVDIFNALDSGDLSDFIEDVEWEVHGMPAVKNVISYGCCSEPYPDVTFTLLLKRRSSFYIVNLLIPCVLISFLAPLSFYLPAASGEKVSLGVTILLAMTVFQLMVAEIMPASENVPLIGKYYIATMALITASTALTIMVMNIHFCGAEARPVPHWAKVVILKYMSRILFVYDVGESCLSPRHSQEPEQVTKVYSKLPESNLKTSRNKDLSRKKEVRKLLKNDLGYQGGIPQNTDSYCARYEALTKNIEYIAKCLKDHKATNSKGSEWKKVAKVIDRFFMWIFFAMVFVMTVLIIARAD
Nicotinic acetylcholine receptor alpha9/alpha10, sequence (Q9JLB5 whole entry): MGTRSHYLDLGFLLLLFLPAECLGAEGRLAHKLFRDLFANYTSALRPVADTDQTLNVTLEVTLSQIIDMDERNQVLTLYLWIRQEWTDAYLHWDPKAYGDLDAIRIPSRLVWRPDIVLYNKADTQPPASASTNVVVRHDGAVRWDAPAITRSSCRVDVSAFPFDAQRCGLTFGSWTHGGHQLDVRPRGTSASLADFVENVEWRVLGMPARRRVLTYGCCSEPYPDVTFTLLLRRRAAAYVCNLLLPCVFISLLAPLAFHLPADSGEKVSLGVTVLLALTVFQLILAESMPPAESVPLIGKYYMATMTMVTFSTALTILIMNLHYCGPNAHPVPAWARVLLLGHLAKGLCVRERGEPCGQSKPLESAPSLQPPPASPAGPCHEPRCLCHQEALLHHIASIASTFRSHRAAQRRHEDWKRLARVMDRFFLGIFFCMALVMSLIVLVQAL
Neuronal acetylcholine receptor; alpha2/beta4, sequence (P12389 whole entry): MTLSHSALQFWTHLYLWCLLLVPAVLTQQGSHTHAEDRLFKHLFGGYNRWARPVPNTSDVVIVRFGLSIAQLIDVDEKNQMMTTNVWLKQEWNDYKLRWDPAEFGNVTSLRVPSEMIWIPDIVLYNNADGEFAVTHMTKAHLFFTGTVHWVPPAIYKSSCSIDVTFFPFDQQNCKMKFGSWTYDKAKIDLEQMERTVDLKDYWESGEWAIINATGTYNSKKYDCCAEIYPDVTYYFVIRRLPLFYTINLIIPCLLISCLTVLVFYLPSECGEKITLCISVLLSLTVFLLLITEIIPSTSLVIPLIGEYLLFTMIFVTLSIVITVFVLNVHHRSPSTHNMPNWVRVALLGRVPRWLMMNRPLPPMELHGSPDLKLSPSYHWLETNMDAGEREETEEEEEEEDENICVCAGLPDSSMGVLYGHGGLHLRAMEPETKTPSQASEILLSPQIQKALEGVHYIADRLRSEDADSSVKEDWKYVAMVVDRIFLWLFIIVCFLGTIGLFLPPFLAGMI
Neuronal acetylcholine receptor; alpha2/beta4, sequence (P12392 whole entry): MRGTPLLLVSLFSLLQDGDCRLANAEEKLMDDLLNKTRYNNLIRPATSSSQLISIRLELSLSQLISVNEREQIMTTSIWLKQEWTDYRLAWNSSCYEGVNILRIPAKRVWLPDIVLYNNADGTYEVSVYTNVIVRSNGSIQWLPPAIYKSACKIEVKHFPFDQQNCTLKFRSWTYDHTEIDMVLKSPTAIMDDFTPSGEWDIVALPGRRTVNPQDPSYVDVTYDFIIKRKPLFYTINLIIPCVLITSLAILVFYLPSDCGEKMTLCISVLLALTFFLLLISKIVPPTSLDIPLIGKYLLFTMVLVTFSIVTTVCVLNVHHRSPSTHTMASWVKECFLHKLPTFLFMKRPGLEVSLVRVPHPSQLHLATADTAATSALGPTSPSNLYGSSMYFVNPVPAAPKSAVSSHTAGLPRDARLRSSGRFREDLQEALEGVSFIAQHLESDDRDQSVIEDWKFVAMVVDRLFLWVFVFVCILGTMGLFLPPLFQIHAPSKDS
Neuronal acetylcholine receptor; alpha2/beta2, sequence (P12389 whole entry): as the sequence (P12389 whole entry) above
Neuronal acetylcholine receptor; alpha2/beta2, sequence (P12390 whole entry): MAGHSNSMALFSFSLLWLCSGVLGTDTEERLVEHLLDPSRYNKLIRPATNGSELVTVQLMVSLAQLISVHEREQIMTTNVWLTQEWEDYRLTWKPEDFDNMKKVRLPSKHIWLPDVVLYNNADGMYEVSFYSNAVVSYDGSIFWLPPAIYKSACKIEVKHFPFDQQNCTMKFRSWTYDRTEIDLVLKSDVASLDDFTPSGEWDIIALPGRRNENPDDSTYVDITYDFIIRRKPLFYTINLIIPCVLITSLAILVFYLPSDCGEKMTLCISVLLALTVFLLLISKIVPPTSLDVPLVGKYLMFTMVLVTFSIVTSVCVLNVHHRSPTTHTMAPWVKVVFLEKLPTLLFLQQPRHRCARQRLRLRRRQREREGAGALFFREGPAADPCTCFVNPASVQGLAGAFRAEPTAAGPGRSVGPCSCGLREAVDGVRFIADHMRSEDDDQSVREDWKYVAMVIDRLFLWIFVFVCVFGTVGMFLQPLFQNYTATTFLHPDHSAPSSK
Neuronal acetylcholine receptor subunit alpha-7, sequence (P36544 whole entry): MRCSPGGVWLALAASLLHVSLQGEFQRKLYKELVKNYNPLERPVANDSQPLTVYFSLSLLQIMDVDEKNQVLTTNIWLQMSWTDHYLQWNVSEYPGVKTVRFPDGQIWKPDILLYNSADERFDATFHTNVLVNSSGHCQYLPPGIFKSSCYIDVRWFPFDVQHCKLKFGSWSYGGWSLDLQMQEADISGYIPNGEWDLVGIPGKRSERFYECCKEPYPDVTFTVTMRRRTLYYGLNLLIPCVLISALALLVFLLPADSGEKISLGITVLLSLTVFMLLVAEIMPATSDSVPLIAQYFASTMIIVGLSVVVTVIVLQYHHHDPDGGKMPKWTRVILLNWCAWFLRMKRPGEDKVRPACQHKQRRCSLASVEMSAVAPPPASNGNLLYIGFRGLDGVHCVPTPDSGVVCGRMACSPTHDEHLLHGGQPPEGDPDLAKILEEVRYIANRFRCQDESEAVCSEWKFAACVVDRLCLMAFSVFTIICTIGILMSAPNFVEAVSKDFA
Neuronal acetylcholine receptor; alpha4/beta2, sequence (P09483 whole entry): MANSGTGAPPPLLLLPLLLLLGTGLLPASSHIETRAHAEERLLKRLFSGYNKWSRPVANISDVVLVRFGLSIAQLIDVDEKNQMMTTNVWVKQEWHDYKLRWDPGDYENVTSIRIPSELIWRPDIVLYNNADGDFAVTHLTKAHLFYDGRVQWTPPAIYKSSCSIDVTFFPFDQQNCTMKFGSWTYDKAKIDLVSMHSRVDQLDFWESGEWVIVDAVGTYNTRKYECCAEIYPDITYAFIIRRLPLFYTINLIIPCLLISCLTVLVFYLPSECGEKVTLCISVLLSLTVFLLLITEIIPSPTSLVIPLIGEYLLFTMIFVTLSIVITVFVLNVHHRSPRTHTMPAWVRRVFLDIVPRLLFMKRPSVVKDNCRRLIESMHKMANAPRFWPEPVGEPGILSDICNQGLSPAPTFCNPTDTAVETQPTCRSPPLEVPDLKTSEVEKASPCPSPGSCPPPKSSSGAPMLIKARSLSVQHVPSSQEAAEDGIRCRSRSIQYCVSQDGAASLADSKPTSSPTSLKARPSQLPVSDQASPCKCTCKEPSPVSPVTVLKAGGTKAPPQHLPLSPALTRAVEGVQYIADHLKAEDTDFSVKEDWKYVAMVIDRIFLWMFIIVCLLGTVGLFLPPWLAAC
Neuronal acetylcholine receptor; alpha4/beta2, sequence (P12390 whole entry): as the sequence (P12390 whole entry) above
Neuronal acetylcholine receptor; alpha4/beta4, sequence (P09483 whole entry): as the sequence (P09483 whole entry) above
Neuronal acetylcholine receptor; alpha4/beta4, sequence (P12392 whole entry): as the sequence (P12392 whole entry) above
Neuronal acetylcholine receptor; alpha3/beta4, sequence (P04757 whole entry): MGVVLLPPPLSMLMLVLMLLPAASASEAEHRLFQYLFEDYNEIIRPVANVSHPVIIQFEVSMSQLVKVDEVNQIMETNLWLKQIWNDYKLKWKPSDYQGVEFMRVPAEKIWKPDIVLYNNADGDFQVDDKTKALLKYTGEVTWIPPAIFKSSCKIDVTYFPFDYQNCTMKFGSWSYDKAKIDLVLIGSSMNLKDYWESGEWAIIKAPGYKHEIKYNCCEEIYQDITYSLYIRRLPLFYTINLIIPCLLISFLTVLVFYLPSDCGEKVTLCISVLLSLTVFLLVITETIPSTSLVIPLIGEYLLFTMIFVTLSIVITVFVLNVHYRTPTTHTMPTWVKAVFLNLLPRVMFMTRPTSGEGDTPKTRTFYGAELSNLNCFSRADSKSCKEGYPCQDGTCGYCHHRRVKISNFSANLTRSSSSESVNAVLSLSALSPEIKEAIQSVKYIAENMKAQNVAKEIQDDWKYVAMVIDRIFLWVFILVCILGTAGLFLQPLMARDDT
Neuronal acetylcholine receptor; alpha3/beta4, sequence (P12392 whole entry): as the sequence (P12392 whole entry) above

In the case of `C[C@@H]1NC(=O)[C@@H]2CSSC[C@H](NC(=O)CN)C(=O)N[C@@H](CSSC[C@@H](C(N)=O)NC(=O)[C@H](Cc3cnc[nH]3)NC(=O)[C@H](CCC(=O)O)NC(=O)[C@H](Cc3cnc[nH]3)NC1=O)C(=O)N[C@@H](CO)C(=O)N[C@@H](CC(N)=O)C(=O)N1CCC[C@H]1C(=O)N1CCC[C@H]1C(=O)N2` (H-GCCSNPPCAHEHC-NH2; disulfide 2-8, 3-13), the inhibition [1] is reported as “inactive”, the IC50 [2] is reported as 220 nM and the IC50 [3] is reported as greater than 10000 nM. The IC50 [4] was 200 nM, the inhibition [5] was “inactive” and the IC50 [6] was greater than 10000 nM. The IC50 [7] was 1410 nM, the IC50 [8] was greater than 10000 nM and the IC50 [9] was 160 nM. The IC50 [10] was greater than 10000 nM, the IC50 [11] was 530 nM and the IC50 [12] was greater than 10000 nM. For the same compound, the IC50 [13] was greater than 10000 nM, the IC50 [14] was 1070 nM and the IC50 [15] was 150 nM. The inhibition [16] was “inactive”, the IC50 [17] was 1130 nM and the IC50 [18] was 190 nM. The IC50 [19] was 1570 nM, the IC50 [20] was 130 nM and the inhibition [21] was “inactive”. It also gave an IC50 [22] of 430 nM, an IC50 [23] of 160 nM and an IC50 [24] of 710 nM.
